Source: patent US12721838B2 (Henry Ford Health System, priority 2020, dated 2026)
Read-outs that look alike come from different tables or passages of the source.

How the values were obtained:
[1] = target: T1, luciferase (Renilla reniformis, UniProt P27652); test: Counter-screen with control luciferase-transfected HFF cells; type: cell-based
T1 construct: expressed in transfected cells; host or cells: human foreskin fibroblasts (HFF)
T1 sequence (P27652 1-311): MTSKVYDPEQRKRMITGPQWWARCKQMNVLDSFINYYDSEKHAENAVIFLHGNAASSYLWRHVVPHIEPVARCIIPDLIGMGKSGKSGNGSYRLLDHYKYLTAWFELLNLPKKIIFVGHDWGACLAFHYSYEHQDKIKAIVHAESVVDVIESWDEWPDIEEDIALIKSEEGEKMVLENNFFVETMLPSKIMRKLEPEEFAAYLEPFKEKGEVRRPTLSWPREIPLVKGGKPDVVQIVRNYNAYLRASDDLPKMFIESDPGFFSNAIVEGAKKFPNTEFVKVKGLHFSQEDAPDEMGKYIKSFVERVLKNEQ
Method: Human foreskin fibroblast cells (HFF) cells were transfected with a Trib2-Luciferase (Luc-Trib2) fusion construct. Cells were plated in 96-well tissue culture plates and treated with compounds (10 μM) for 24 hours. Luciferase activity was measured using an EnduRen™ Live cell substrate kit (commercially available from PROMEGA CORP.®, Madison, WI). […] For further development, selected compounds were counter-screened with control luciferase-transfected HFF cells.
The main hurdle to develop agents to inhibit Trib2 is the lack of a quick and easy assay procedure to effectively screen large number of compounds. To overcome this problem, the present disclosure provides a design for a new assay system to measure the active state of Trib2 protein. The present disclosure describes a Trib2-luciferase gene construct by combining the full length human Trib2 gene with the luciferase gene from Renilla. Destabilization of the three-dimensional conformation of the resultant Trib2-luc fusion protein can deliver reportable outcome via alteration in the enzymatic activity of luciferase. A second screen was designed to eliminate compounds that affects the activity of only luciferase. […] Thus, the luciferase-based assay system (involving first screen and a counter-screen) of the present disclosure emerges as an effective way to identify Trib2-targeting drugs using simple gene transfected cell lines in culture.
Here, the screening strategy used to select compounds based on inhibition of luciferase activity in Trib2-Luc cells, but not in Luc cells. Compounds screened included a representative set of 104 FDA-approved compounds on Trib2-Luciferase fusion construct-transfected HFF cells are shown here. Cells were treated with compounds (10 μM) for 24 hours and measured luciferase activity using a kit from Promega Corp. (Madison, WI). For further development selected compounds are counter-screened with control luciferase-transfected HFF cells.

[2] = tested on: LNCaP-ENR cells; test: Soft-agar colony formation assay; type: cell-based, human; conditions: LNCaP-ENR (ERPC) cells, three weeks; DCV at 8 μM
Method: Effect of DCV on soft-agar colony formation was also analyzed. LNCaP-ENR cells (10,000 per well in 6-well plates) were plated in 0.3% soft-agar on top of a base layer of 0.6% agar. The cells were treated with DCV and incubated at 37° C. for three weeks in the CO2 incubator. Cells were given fresh media and drug every fourth day. At the end of the incubation period, colonies were stained with 0.025% crystal violet, and pictures of colonies were taken with a Nikon digital camera at ×200. Image processing was done using Q-Capture Pro-7 software. Exemplary methods of the foregoing technique can be found in Sarveswaran, Sivalokanathan et al. “Inhibition of 5-lipoxygenase downregulates stemness and kills prostate cancer stem cells by triggering apoptosis via activation of c-Jun N-terminal kinase.” Oncotarget vol. 10, 4 424-436. 11 Jan. 2019, the disclosure of which is incorporated herein by reference in its entirety.

[3] = tested on: LNCaP-ENR and MR49F ERPC cells; test: In vitro invasion through extracellular matrix; type: cell-based, human; conditions: LNCaP-ENR and MR49F ERPC cells (data not shown)
[4] = tested on: LNCaP-ENR cells; test: Apoptosis by Annexin V binding, flow cytometry; type: cell-based, human; conditions: LNCaP-ENR cells, 8 μM, 24 hours, flow cytometry
Method: To test DCV effects on cancer cell apoptosis, LNCaP-ENR cells were treated with 8 μM DCV for 24 hours and analyzed by flow cytometry. Treatment with DCV indicated increased Annexin V binding, a read-out for apoptosis (FIG. 3C).

[5] = tested on: c-JNK, caspase 3; test: Activation of c-JNK and caspase 3; type: cell-based, human; conditions: LNCaP-ENR cells
Method: To explore the underlying mechanism of DCV-induced apoptosis in ERPC cells, the effect of DCV on Jun N-terminal kinases (JNKs) was analyzed. JNKs play a critical role in apoptotic pathways. […] Both caspase-dependent and caspase-independent apoptotic cell death processes are known.

[6] = tested on: normal, non-cancer cells; test: Effects on normal, non-cancer cells; type: cell-based; conditions: same experimental conditions as ERPC cells
[7] = cited from earlier work
[8] = cited from earlier work; remark: listed apart in the source
[9] = target: p-glycoprotein (PGP) (Homo sapiens, UniProt P08183); conditions: cited from earlier work
Sequence of p-glycoprotein (PGP) (P08183 whole entry, the tested form may be a part): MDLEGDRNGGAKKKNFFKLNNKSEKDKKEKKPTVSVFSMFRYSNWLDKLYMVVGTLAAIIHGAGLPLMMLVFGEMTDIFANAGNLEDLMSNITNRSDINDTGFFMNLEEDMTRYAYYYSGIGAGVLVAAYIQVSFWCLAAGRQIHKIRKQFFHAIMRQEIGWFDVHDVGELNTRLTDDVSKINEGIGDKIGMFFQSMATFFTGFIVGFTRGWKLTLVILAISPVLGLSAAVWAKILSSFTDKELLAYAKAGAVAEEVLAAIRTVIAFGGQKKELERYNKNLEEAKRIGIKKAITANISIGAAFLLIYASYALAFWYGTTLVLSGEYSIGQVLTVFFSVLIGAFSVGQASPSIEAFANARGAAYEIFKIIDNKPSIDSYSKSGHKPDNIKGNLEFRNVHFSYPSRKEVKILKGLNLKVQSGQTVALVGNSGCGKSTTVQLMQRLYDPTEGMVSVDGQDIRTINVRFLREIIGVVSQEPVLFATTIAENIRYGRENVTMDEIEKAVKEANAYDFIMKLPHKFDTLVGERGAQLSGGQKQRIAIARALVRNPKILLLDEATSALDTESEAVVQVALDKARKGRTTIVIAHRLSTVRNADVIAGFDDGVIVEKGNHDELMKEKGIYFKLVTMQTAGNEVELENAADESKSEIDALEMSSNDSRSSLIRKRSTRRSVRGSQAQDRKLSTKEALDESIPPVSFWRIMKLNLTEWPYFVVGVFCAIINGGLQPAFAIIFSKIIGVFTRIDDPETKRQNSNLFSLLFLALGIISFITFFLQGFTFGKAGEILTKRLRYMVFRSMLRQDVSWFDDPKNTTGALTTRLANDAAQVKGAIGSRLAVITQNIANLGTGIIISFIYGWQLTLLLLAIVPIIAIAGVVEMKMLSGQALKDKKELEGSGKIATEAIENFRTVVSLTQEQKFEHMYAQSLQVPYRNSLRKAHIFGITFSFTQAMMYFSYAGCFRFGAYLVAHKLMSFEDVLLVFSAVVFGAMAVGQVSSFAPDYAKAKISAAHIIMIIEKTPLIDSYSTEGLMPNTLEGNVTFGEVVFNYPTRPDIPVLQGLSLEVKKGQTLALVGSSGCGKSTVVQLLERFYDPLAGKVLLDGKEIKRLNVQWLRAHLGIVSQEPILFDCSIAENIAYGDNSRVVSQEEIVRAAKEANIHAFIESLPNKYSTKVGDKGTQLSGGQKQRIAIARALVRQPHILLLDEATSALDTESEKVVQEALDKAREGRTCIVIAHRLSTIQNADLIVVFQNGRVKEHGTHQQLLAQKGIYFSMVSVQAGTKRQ

[10] = target: T2, Trib2-Luciferase (Luc-Trib2) fusion (Homo sapiens, UniProt Q92519); test: cell-based; conditions: HFF
T2 sequence (Q92519 with tags, fused parts or gaps): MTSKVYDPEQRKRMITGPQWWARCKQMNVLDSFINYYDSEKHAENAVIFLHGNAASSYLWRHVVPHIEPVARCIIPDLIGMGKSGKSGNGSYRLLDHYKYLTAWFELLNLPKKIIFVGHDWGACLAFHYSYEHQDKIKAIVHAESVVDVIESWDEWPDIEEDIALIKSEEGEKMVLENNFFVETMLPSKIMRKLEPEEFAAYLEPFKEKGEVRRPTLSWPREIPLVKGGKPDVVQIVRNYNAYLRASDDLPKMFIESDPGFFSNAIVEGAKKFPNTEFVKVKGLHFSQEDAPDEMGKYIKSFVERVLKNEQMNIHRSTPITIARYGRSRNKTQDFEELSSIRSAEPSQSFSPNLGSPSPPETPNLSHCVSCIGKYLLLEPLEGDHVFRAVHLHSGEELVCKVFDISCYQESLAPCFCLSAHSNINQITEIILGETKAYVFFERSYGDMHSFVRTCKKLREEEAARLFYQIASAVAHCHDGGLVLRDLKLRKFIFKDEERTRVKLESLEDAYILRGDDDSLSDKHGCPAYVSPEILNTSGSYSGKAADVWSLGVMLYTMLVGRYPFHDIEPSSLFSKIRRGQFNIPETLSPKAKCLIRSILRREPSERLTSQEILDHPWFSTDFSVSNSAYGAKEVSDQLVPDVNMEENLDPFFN

For `COC(=O)N[C@H](C(=O)N1CCC[C@H]1c1nc(-c2ccc(-c3ccc(-c4c[nH]c([C@@H]5CCCN5C(=O)[C@@H](NC(=O)OC)C(C)C)n4)cc3)cc2)c[nH]1)C(C)C` [Daclatasvir, 4,4′-bis[2-((2S)-1-{(2S)-2-[(methoxycarbonyl)amino]-3-methylbutanoyl}-2-pyrrolidinyl)-1H-imidazol-4-yl]-1,1′-biphenyl], the “inhibition of control luciferase activity (counter-screen, without Trib2)” value (“inhibition … (counter-screen, without Trib2)” below) [1] was “passed counter-screen tests”, the “inhibition … (counter-screen, without Trib2)” value ([1]; listed as DCV) was “does not inhibit control luciferase activity” and the “inhibition … (counter-screen, without Trib2)” value ([1]; listed as daclatasvir) was “does not inhibit luciferase activity in the absence of Trib2”. The soft-agar colony formation [2] was “completely blocked”, the “in vitro invasion through extracellular matrix” value [3] was “dramatically decreases” and the “Annexin V binding” value [4] was “increased”. For the same molecule, the “activation of caspase 3” value [5] was “induces activation”, the “activation of c-JNK” value ([5]; dose-dependent) was “rapid and robust activation” and the “effects on normal, non-cancer cells” value [6] was “minimal effects”. For the same molecule, the uptake rate ([7]; delivered orally) was “about 67%”, the protein bound ([7]; in vivo) was ~ 99% and the half-life ([7]; mammalian hosts) was “about 15 hours”. For the same molecule, the tolerability ([7]; mammalian hosts) was “very well tolerated”, the “solubility in aqueous solvents” value [8] was “freely soluble” and the “action on p-glycoprotein (PGP)” value [9] was “inhibitor”. For the same molecule, the activity at 10 µM ([10]; read-out: Luciferase activity (%)) was 28% and the inhibition at 10 µM ([10]; read-out: inhibition of Trib2-luciferase activity) was greater than 70%.
